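Cells were grown in 96-well plates and exposed to each compound for 48 hours at five concentrations; endpoints were interpolated linearly between bracketing concentrations, or set to the highest concentration if not reached. At the GI50, growth is halved.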 Activity calls are given as the source filed them. No stated cut-off is given here; in the data, active = GI50 up to about 1.1 µM and inactive = higher.
What was measured:
Test in all cases: inhibition of tumour cell growth, NCI panel, 48 h
Hs-578T = test system: Hs-578T
HCT-116 = test system: HCT-116
SK-MEL-2 = test system: SK-MEL-2
SK-MEL-5 = test system: SK-MEL-5
Malme-3M = test system: Malme-3M
LOX IMVI = test system: LOX IMVI
KM12 = test system: KM12
MDA-MB-435 = test system: MDA-MB-435
EKVX = test system: EKVX
IGROV-1 = test system: IGROV-1
K562 = test system: K562
HCC 2998 = test system: HCC 2998
OVCAR-5 = test system: OVCAR-5
SF-295 = test system: SF-295
UACC-62 = test system: UACC-62
TK-10 = test system: TK-10
CCRF-CEM = test system: CCRF-CEM

Measured: GI50

CCOC(=O)NN(C(=O)OCC)c1ccc(/N=N/c2ccc(OC)cc2)n1C
inactive: Hs-578T 65.8 µM | HCT-116 18.6 µM | SK-MEL-2 10.8 µM | SK-MEL-5 17.5 µM | Malme-3M 25.2 µM | LOX IMVI 21.5 µM | KM12 24 µM | MDA-MB-435 22.7 µM | EKVX > 100 µM | IGROV-1 29 µM | K562 23.1 µM | HCC 2998 31.3 µM | OVCAR-5 32.7 µM | SF-295 37.4 µM | UACC-62 99.1 µM | TK-10 44.2 µM

COc1cccc(N2N=C3c4ccccc4-n4c(nc5ccccc54)C3C2N)c1 (configuration not stated)
inactive: Hs-578T > 100 µM | HCT-116 > 100 µM | SK-MEL-2 > 100 µM | SK-MEL-5 20.7 µM | Malme-3M 66.1 µM | LOX IMVI > 100 µM | KM12 > 100 µM | MDA-MB-435 62.8 µM | EKVX > 100 µM | IGROV-1 > 100 µM | HCC 2998 > 100 µM | OVCAR-5 47.2 µM | SF-295 > 100 µM | UACC-62 > 100 µM | TK-10 92.9 µM

O=c1c2cc([N+](=O)[O-])ccc2[nH]n1Cc1ccccc1Cl
inactive: Hs-578T 48.8 µM | HCT-116 55.7 µM | SK-MEL-5 34.7 µM | Malme-3M 26.7 µM | LOX IMVI > 100 µM | CCRF-CEM 85.5 µM | KM12 55.7 µM | MDA-MB-435 64.9 µM | EKVX 30.2 µM | IGROV-1 80.2 µM | K562 48.8 µM | HCC 2998 57.9 µM | OVCAR-5 > 100 µM | SF-295 > 100 µM | UACC-62 > 100 µM | TK-10 18.2 µM

N#Cc1nc(-c2cc([N+](=O)[O-])cc([N+](=O)[O-])c2)oc1N
inactive: Hs-578T > 10 µM | HCT-116 > 10 µM | SK-MEL-5 > 10 µM | Malme-3M > 10 µM | LOX IMVI > 10 µM | CCRF-CEM > 10 µM | KM12 > 10 µM | MDA-MB-435 > 10 µM | EKVX > 10 µM | IGROV-1 > 10 µM | K562 > 10 µM | HCC 2998 > 10 µM | SF-295 > 10 µM | UACC-62 > 10 µM | TK-10 > 10 µM

CN(C)c1nc2oc(-c3ccccc3)c(-c3ccccc3)c2c2nnnn12
inactive: Hs-578T > 100 µM | HCT-116 > 100 µM | SK-MEL-5 > 100 µM | LOX IMVI > 100 µM | CCRF-CEM > 100 µM | KM12 > 100 µM | MDA-MB-435 > 100 µM | EKVX > 100 µM | IGROV-1 > 100 µM | K562 > 100 µM | HCC 2998 > 100 µM | OVCAR-5 > 100 µM | SF-295 > 100 µM | UACC-62 > 100 µM | TK-10 > 100 µM
